Measurements: US20190211002A1, “NOVEL TRIAZOLE DERIVATIVES” (Bayer CropScience Aktiengesellschaft, priority 2016, published 2019)

Key:
Sphaerotheca fuliginea [1] = test: Example H: in vivo preventive test on Sphaerotheca (cucumbers), comparison vs. WO-A 2010/146116; conditions: evaluated 7 days after inoculation
Experimental: To produce a suitable preparation of active compound, 1 part by weight of active compound is mixed with the stated amounts of solvent and emulsifier, and the concentrate is diluted with water to the desired concentration. To test for preventive activity, young plants are sprayed with the preparation of active compound at the stated rate of application. After the spray coating has dried on, the plants are inoculated with an aqueous spore suspension of Sphaerotheca fuliginea. The plants are then placed in a greenhouse at approximately 23° C. and a relative atmospheric humidity of approximately 70%. The test is evaluated 7 days after the inoculation.

[2] = LogP by HPLC on reversed phase columns (EEC directive 79/831 Annex V.A8); type: physicochemical; conditions: method [a]: LC-UV, acidic range, 0.1% formic acid in water and acetonitrile as eluent; for chromatographic logP: reversed phase HPLC column
Experimental: Measurement of LogP values was performed according to EEC directive 79/831 Annex V.A8 by HPLC (High Performance Liquid Chromatography) on reversed phase columns with the following methods: • ^[a] […] Lambda-max-values were determined using UV-spectra from 200 nm to 400 nm and the peak values of the chromatographic signals.

Puccinia recondita = test: Example A: in vivo preventive test on Puccinia recondita (brown rust on wheat); conditions: 264 h, 500 ppm of active ingredient, preventive spray, evaluated 11 days after inoculation, read-out: efficacy
Experimental: (§1) The test is evaluated 11 days after the inoculation.

Sphaerotheca fuliginea [3] = test: Example C: in vivo preventive test on Sphaerotheca fuliginea (powdery mildew on cucurbits); conditions: Podosphaera fuliginea, 360 h; 500 ppm of active ingredient; gherkin; preventive spray; evaluated 15 days after inoculation; read-out: efficacy
Experimental: The test is evaluated 15 days after the inoculation.

Uromyces appendiculatus = test: Example D: in vivo preventive test on Uromyces appendiculatus (bean rust); conditions: 264 h, 500 ppm of active ingredient, preventive spray, evaluated 11 days after inoculation, read-out: efficacy
Experimental: as §1

[4] = test system: Blumeria graminis f sp. hordei; test: Example E: in vivo preventive Blumeria test (barley); conditions: 168 h, 500 ppm of active ingredient, preventive spray, evaluated 7 days after inoculation, read-out: efficacy
Experimental: • Solvent: 49 parts by weight of N,N-dimethylacetamide • Emulsifier: 1 part by weight of alkylaryl polyglycol ether To produce a suitable preparation of active compound, 1 part by weight of active compound or active compound combination was mixed with the stated amounts of solvent and emulsifier, and the concentrate was diluted with water to the desired concentration. To test for preventive activity, young plants were sprayed with the preparation of active compound or active compound combination at the stated rate of application. After the spray coating had been dried, the plants were dusted with spores of Blumeria graminis f sp. hordei. The plants were placed in the greenhouse at a temperature of approximately 18° C. and a relative atmospheric humidity of approximately 80% to promote the development of mildew pustules. The test was evaluated 7 days after the inoculation.

Septoria tritici = test: Example G: in vivo 5 days preventive Septoria tritici test (wheat), comparison vs. WO-A 2010/146116; conditions: inoculated 5 days after spraying, evaluated 21 days after inoculation
Experimental: • Solvent: 49 parts by weight of N,N-dimethylacetamide • Emulsifier: 1 part by weight of alkylaryl polyglycol ether To produce a suitable preparation of active compound, 1 part by weight of active compound or active compound combination is mixed with the stated amounts of solvent and emulsifier, and the concentrate is diluted with water to the desired concentration. To test for preventive and long-lasting activity, young plants are sprayed with a preparation of active compound or active compound combination at the stated rate of application. After the spray coating has been dried, the plants are placed in the greenhouse at a temperature of approximately 15° C. and a relative atmospheric humidity of approximately 80%. 5 days later the plants are sprayed with a spore suspension of Septoria tritici. The plants remain for 48 hours in an incubation cabinet at approximately 20° C. and a relative atmospheric humidity of approximately 100% and afterwards for 60 hours at approximately 15° C. in a translucent incubation cabinet at a relative atmospheric humidity of approximately 100%. Then the plants are placed in the greenhouse at a temperature of approximately 15° C. and a relative atmospheric humidity of approximately 80%. The test is evaluated 21 days after the inoculation.

SMILES: Clc1ccc(Oc2cc(Cl)c(C3(Cn4cncn4)OCCO3)cn2)cc1 [drawing 85, reference compound]
- Efficacy in % (Sphaerotheca fuliginea [1]; rate of application 10 ppm): 14%
- Efficacy in % (Sphaerotheca fuliginea [1]; rate of application 100 ppm): 100%

SMILES: FC(F)(F)c1nc(Oc2ccc(S(F)(F)(F)(F)F)cc2)ccc1C1(Cn2cncn2)OCCO1 [I.11]
- chromatographic logP [2]: 3.54
- pest or weed control at 500 ppm (Puccinia recondita): 90 to 100%
- pest or weed control at 500 ppm (Sphaerotheca fuliginea [3]): 90 to 100%
- pest or weed control at 500 ppm (Uromyces appendiculatus): 90 to 100%
- pest or weed control at 500 ppm [4]: 70 to 79%
- Efficacy in % (Septoria tritici; rate of application 100 ppm): 71%
- Efficacy in % (Septoria tritici; rate of application 500 ppm): 100%

SMILES: FC(F)(F)Oc1ccc(Oc2ccc(C3(Cn4cncn4)OCCO3)c(C(F)(F)F)n2)cc1 [I.22]
- LogP [2]: 3.46 ^[a]

SMILES: CC1OC(Cn2cncn2)(c2ccc(Oc3ccc(Br)cc3)nc2C(F)(F)F)OC1C (mixture of isomers) [I.17]
- LogP [2]: 3.85^[a]

SMILES: CC1COC(Cn2cncn2)(c2ccc(Oc3ccc(Cl)cc3)nc2C(F)(F)F)O1 (single isomer, unassigned) [I.13]
- LogP [2]: 3.48^[a]

SMILES: Cc1ccc(Oc2ccc(C3(Cn4cncn4)OCCO3)c(C(F)(F)F)n2)cc1 [I.25]
- LogP [2]: 3.21 ^[a]

SMILES: CSc1ccc(Oc2ccc(C3(Cn4cncn4)OCCO3)c(C(F)(F)F)n2)cc1 [I.20]
- LogP [2]: 3.05 ^[a]

SMILES: CC1COC(Cn2cncn2)(c2ccc(Oc3ccc(Cl)cc3)nc2C(F)(F)F)O1 (single isomer, unassigned) [I.12]
- LogP [2]: 3.48^[a]

SMILES: CCC1COC(Cn2cncn2)(c2ccc(Oc3ccc(OC(F)(F)F)cc3)nc2C(F)(F)F)O1 (stereo not drawn) [I.24]
- LogP [2]: 4.09 ^[a]

SMILES: CCCC1COC(Cn2cncn2)(c2ccc(Oc3ccc(Br)cc3)nc2C(F)(F)F)O1 (mixture of isomers) [I.08]
- LogP [2]: 4.32^[a]

SMILES: CCC1COC(Cn2cncn2)(c2ccc(Oc3ccc(S(F)(F)(F)(F)F)cc3)nc2C(F)(F)F)O1 (mixture of isomers) [I.01]
- LogP [2]: 4.15^[a]

SMILES: CC1COC(Cn2cncn2)(c2ccc(Oc3ccc(OC(F)(F)F)cc3)nc2C(F)(F)F)O1 (mixture of isomers) [I.21]
- LogP [2]: 3.76 ^[a]

SMILES: CC1(c2ccc(Oc3ccc(Cl)cc3)nc2C(F)(F)F)OCCO1 [XV.01, 6-(4-chlorophenoxy)-3-(2-methyl-1,3-dioxolan-2-yl)-2-(trifluoromethyl)pyridine]
- chromatographic logP [2]: 4.44

SMILES: Clc1ccc(Oc2cc(Cl)c(C3(Cn4cncn4)OCCO3)cn2)cc1 [drawing 80, reference compound]
- Efficacy in % (Septoria tritici; rate of application 100 ppm): 50%
- Efficacy in % (Septoria tritici; rate of application 500 ppm): 80%

SMILES: CSc1ccc(Oc2ccc(C3(Cn4nc[nH]c4=S)OCCO3)c(C(F)(F)F)n2)cc1 [I-S.04]
- LogP [2]: 2.95 ^[a]

SMILES: CC1COC(Cn2cncn2)(c2ccc(Oc3ccc(Cl)cc3)nc2C(F)(F)F)O1 (racemic) [I.09]
- LogP [2]: 3.46^[a]

SMILES: CC1COC(Cn2cncn2)(c2ccc(Oc3ccc(C(F)(F)F)cc3)nc2C(F)(F)F)O1 (mixture of isomers) [I.10]
- LogP [2]: 3.62^[a]

SMILES: CC1COC(Cn2cncn2)(c2ccc(Oc3ccc(Br)cc3)nc2C(F)(F)F)O1 (stereo not drawn) [I.16, 6-(4-bromophenoxy)-3-[4-methyl-2-(1,2,4-triazol-1-ylmethyl)-1,3-dioxolan-2-yl]-2-(trifluoromethyl)pyridine]
- LogP [2]: 3.55
- chromatographic logP [2]: 3.59
- pest or weed control at 500 ppm (Puccinia recondita): 90 to 100%
- pest or weed control at 500 ppm (Sphaerotheca fuliginea [3]): 90 to 100%
- pest or weed control at 500 ppm (Uromyces appendiculatus): 90 to 100%
- pest or weed control at 500 ppm [4]: 90 to 100%

SMILES: CCC1COC(Cn2cncn2)(c2ccc(Oc3ccc(Br)cc3)nc2C(F)(F)F)O1 (mixture of isomers) [I.06]
- LogP [2]: 3.94^[a]

SMILES: Cc1ccc(Oc2ccc(C3(Cn4nc[nH]c4=S)OCCO3)c(C(F)(F)F)n2)cc1 [I-S.03]
- LogP [2]: 2.94 ^[a]

SMILES: CCC1COC(Cn2cncn2)(c2ccc(Oc3ccc(C(F)(F)F)cc3)nc2C(F)(F)F)O1 (stereo not drawn) [I.07, 3-[4-ethyl-2-(1,2,4-triazol-1-ylmethyl)-1,3-dioxolan-2-yl]-2-(trifluoromethyl)-6-[4-(trifluoromethyl)phenoxy]pyridine]
- chromatographic logP [2]: 3.96
- pest or weed control at 500 ppm (Puccinia recondita): 90 to 100%
- pest or weed control at 500 ppm (Sphaerotheca fuliginea [3]): 90 to 100%
- pest or weed control at 500 ppm (Uromyces appendiculatus): 90 to 100%
- pest or weed control at 500 ppm [4]: 90 to 100%

SMILES: FC(F)(F)c1nc(Oc2ccc(Br)cc2)ccc1C1(Cn2cncn2)OCCO1 [I.02]
- chromatographic logP [2]: 3.35
- pest or weed control at 500 ppm (Puccinia recondita): 90 to 100%
- pest or weed control at 500 ppm (Sphaerotheca fuliginea [3]): 90 to 100%
- pest or weed control at 500 ppm (Uromyces appendiculatus): 90 to 100%
- pest or weed control at 500 ppm [4]: 90 to 100%
- Efficacy in % (Septoria tritici; rate of application 100 ppm): 93%
- Efficacy in % (Septoria tritici; rate of application 500 ppm): 100%

SMILES: CCC1COC(Cn2cncn2)(c2ccc(Oc3ccc(Cl)cc3)nc2C(F)(F)F)O1 (mixture of isomers) [I.15]
- LogP [2]: 3.83^[a]

SMILES: FC(F)(F)c1nc(Oc2ccc(Br)cc2)ccc1C1(Cn2cncn2)OCC(C(F)(F)F)O1 (racemic) [I.26]
- LogP [2]: 2.26 ^[a]

SMILES: CC1OC(Cn2cncn2)(c2ccc(Oc3ccc(Cl)cc3)nc2C(F)(F)F)OC1C (mixture of isomers) [I.18]
- LogP [2]: 3.76^[a]

SMILES: FC(F)(F)c1ccc(Oc2ccc(C3(Cn4nc[nH]c4=S)OCCO3)c(C(F)(F)F)n2)cc1 [I-S.01, 2-[[2-[2-(trifluoromethyl)-6-[4-(trifluoromethyl)phenoxy]-3-pyridyl]-1,3-dioxolan-2-yl]methyl]-4H-1,2,4-triazole-3-thione]
- chromatographic logP [2]: 3.18
- pest or weed control at 500 ppm (Puccinia recondita): 90 to 100%
- pest or weed control at 500 ppm (Sphaerotheca fuliginea [3]): 90 to 100%
- pest or weed control at 500 ppm (Uromyces appendiculatus): 90 to 100%
- pest or weed control at 500 ppm [4]: 90 to 100%

SMILES: CCCC1COC(Cn2cncn2)(c2ccc(Oc3ccc(Cl)cc3)nc2C(F)(F)F)O1 (mixture of isomers) [I.05]
- LogP [2]: 4.19^[a]

SMILES: FC(F)(F)c1nc(Oc2ccc(Br)cc2)ccc1C1(Cn2nc[nH]c2=S)OCCO1 [I-S.05]
- LogP [2]: 3.14 ^[a]

SMILES: FC(F)(F)c1nc(Oc2ccc(Cl)cc2)ccc1C1(Cn2nc[nH]c2=S)OCCO1 [I-S.02, 2-[[2-[6-(4-chlorophenoxy)-2-(trifluoromethyl)-3-pyridyl]-1,3-dioxolan-2-yl]methyl]-4H-1,2,4-triazole-3-thione]
- chromatographic logP [2]: 3.06
- pest or weed control at 500 ppm (Puccinia recondita): 90 to 100%
- pest or weed control at 500 ppm (Sphaerotheca fuliginea [3]): 90 to 100%
- pest or weed control at 500 ppm (Uromyces appendiculatus): 90 to 100%
- pest or weed control at 500 ppm [4]: 90 to 100%

SMILES: FC(F)(F)c1ccc(Oc2ccc(C3(Cn4cncn4)OCCO3)c(C(F)(F)F)n2)cc1 [I.14, 3-[2-(1,2,4-triazol-1-ylmethyl)-1,3-dioxolan-2-yl]-2-(trifluoromethyl)-6-[4-(trifluoromethyl)phenoxy]pyridine]
- chromatographic logP [2]: 3.29
- pest or weed control at 500 ppm (Puccinia recondita): 90 to 100%
- pest or weed control at 500 ppm (Sphaerotheca fuliginea [3]): 90 to 100%
- pest or weed control at 500 ppm (Uromyces appendiculatus): 90 to 100%
- pest or weed control at 500 ppm [4]: 90 to 100%
- Efficacy in % (Septoria tritici; rate of application 100 ppm): 100%
- Efficacy in % (Septoria tritici; rate of application 500 ppm): 100%
- Efficacy in % (Sphaerotheca fuliginea [1]; rate of application 10 ppm): 75%
- Efficacy in % (Sphaerotheca fuliginea [1]; rate of application 100 ppm): 100%

SMILES: FC(F)(F)c1nc(Oc2ccc(Br)cc2)ccc1C1(Cn2cncn2)OCC(C(F)(F)F)O1 (racemic) [I.23]
- LogP [2]: 3.80 ^[a]

SMILES: CC1COC(Cn2cncn2)(c2ccc(Oc3ccc(S(F)(F)(F)(F)F)cc3)nc2C(F)(F)F)O1 (mixture of isomers) [I.19]
- LogP [2]: 3.85^[a]

SMILES: CC1COC(Cn2cncn2)(c2ccc(Oc3ccc(Cl)cc3)nc2C(F)(F)F)O1 (mixture of isomers) [I.03]
- LogP [2]: 3.55^[a]
